{
  "source": "the kinase profiling compilation of Christmann-Franck et al. (2016)",
  "test_in_all_cases": "KINOMEscan competition binding",
  "conditions_in_all_cases": "compound 10.0 µM",
  "key": {"TBK1 (human)": {"molecular_target": "TBK1 (human) (UniProt Q9UHD2)"}, "CDKL3 (human)": {"molecular_target": "CDKL3 (human) (UniProt Q8IVW4)"}, "[1]": {"system": "KIT (human), P10721 [V559D/T670I]", "sequence (P10721 whole entry V559D/T670I, looked up)": "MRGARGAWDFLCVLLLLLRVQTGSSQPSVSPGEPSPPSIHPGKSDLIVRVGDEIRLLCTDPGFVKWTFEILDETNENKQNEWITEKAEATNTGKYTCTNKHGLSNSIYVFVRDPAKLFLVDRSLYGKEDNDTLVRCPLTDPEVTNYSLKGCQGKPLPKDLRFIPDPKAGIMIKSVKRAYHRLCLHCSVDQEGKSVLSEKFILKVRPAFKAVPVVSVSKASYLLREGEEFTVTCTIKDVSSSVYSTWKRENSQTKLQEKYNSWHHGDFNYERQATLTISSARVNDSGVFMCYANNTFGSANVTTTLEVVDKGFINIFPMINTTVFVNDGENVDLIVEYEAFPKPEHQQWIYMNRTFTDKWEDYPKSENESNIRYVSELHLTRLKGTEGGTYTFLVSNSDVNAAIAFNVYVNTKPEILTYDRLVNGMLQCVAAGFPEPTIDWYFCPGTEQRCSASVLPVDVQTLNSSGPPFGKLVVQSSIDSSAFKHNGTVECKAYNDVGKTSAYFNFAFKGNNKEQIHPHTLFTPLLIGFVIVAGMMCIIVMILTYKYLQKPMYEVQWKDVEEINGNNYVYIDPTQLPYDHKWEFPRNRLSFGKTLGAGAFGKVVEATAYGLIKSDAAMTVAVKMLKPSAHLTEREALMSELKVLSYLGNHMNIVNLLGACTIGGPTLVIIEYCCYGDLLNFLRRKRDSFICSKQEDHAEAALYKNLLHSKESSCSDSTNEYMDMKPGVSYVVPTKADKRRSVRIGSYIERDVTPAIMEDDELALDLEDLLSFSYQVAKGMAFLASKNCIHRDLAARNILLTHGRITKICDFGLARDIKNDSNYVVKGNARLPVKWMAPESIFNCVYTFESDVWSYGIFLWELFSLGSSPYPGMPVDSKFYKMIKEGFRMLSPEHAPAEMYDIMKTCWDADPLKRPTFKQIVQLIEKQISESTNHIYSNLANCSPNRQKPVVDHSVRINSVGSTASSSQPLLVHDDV"}, "PKN3 (M.tuberculosis)": {"molecular_target": "PKN3 (M.tuberculosis) (UniProt Q6P5Z2)"}, "[2]": {"system": "EGFR (human), P00533 [P753S; 747-752 del]"}, "PIK3C2G (human)": {"molecular_target": "PIK3C2G (human) (UniProt O75747)"}, "NEK11 (human)": {"molecular_target": "NEK11 (human) (UniProt Q8NG66)"}, "MAP3K6 (human)": {"molecular_target": "MAP3K6 (human) (UniProt O95382)"}, "PIP4K2C (human)": {"molecular_target": "PIP4K2C (human) (UniProt Q8TBX8)"}, "SIK3 (human)": {"molecular_target": "SIK3 (human) (UniProt Q9Y2K2)"}, "NEK4 (human)": {"molecular_target": "NEK4 (human) (UniProt P51957)"}, "PIP5K1C (human)": {"molecular_target": "PIP5K1C (human) (UniProt O60331)"}, "STK38 (human)": {"molecular_target": "STK38 (human) (UniProt Q15208)"}, "CDK13 (human)": {"molecular_target": "CDK13 (human) (UniProt Q14004)"}, "OXSR1 (human)": {"molecular_target": "OXSR1 (human) (UniProt O95747)"}, "CRK2 (P.falciparum)": {"molecular_target": "CRK2 (P.falciparum) (UniProt P61075)"}, "DSTYK (human)": {"molecular_target": "DSTYK (human) (UniProt Q6XUX3)"}, "MAP3K2 (human)": {"molecular_target": "MAP3K2 (human) (UniProt Q9Y2U5)", "sequence (Q9Y2U5 whole entry, looked up)": "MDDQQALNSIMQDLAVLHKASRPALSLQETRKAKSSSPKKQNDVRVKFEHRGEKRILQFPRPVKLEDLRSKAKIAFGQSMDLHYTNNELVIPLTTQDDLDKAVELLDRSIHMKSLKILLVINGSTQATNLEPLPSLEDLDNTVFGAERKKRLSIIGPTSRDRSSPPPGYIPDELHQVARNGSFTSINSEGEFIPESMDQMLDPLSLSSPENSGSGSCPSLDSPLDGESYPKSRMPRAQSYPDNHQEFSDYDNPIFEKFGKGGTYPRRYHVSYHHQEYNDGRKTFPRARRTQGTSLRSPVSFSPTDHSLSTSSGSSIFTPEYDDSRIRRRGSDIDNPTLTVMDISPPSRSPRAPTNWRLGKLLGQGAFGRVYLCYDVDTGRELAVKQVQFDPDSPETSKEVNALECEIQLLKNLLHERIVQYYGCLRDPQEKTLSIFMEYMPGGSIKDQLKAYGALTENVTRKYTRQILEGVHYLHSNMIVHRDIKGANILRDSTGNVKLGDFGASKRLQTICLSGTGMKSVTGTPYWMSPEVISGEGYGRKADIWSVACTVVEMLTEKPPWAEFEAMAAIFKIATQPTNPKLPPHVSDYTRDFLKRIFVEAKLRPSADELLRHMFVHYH"}, "PRPF4B (human)": {"molecular_target": "PRPF4B (human) (UniProt Q13523)", "sequence (Q13523 whole entry, looked up)": "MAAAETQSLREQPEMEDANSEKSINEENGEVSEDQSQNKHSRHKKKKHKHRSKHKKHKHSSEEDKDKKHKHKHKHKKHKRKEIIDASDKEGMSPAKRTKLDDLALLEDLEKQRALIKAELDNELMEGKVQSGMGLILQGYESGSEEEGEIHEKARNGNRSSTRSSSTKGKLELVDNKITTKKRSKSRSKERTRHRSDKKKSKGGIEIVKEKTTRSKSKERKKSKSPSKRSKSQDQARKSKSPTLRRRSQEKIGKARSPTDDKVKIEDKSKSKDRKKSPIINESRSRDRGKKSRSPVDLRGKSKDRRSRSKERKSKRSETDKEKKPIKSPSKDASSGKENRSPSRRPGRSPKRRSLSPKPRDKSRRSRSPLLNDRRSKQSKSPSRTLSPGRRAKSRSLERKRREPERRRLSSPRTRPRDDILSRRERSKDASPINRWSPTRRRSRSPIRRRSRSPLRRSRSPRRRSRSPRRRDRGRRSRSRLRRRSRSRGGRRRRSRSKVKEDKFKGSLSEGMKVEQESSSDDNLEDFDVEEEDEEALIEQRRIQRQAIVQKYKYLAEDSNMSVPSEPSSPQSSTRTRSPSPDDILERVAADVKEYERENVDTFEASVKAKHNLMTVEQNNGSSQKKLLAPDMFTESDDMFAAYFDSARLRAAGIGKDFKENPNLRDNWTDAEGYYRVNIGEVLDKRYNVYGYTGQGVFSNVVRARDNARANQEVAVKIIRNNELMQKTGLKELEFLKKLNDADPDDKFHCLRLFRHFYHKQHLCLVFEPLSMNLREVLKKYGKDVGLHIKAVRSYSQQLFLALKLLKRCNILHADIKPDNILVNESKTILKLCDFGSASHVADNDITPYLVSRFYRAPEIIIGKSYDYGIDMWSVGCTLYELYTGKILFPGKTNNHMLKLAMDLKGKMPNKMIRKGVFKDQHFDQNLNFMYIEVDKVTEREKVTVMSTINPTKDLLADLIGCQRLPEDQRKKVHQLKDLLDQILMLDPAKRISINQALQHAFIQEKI"}, "HIPK3 (human)": {"molecular_target": "HIPK3 (human) (UniProt Q9H422)"}, "MAP2K7 (human)": {"molecular_target": "MAP2K7 (human) (UniProt O14733)"}, "GRK1 (human)": {"molecular_target": "GRK1 (human) (UniProt Q15835)", "sequence (Q15835 whole entry, looked up)": "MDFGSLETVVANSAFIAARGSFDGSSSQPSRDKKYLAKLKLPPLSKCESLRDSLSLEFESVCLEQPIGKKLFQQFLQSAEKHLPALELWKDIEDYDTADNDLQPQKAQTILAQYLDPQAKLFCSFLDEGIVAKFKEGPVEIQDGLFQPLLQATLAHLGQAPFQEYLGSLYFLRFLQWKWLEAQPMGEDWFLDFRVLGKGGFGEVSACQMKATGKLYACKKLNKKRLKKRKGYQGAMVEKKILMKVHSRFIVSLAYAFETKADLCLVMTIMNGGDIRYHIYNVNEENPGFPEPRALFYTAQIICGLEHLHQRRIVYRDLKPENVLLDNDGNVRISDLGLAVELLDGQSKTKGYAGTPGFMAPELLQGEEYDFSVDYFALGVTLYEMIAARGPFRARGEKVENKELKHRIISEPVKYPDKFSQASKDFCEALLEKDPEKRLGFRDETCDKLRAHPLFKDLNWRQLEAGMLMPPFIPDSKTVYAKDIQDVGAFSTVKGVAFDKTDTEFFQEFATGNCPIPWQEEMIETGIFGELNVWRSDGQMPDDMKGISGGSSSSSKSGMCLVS"}, "DYRK2 (human)": {"molecular_target": "DYRK2 (human) (UniProt Q92630)"}, "TIE1 (human)": {"molecular_target": "TIE1 (human) (UniProt P35590)"}, "[3]": {"system": "PIK3CA (human), P42336 [I800L]"}, "GRK7 (human)": {"molecular_target": "GRK7 (human) (UniProt Q8WTQ7)"}, "MAP3K1 (human)": {"molecular_target": "MAP3K1 (human) (UniProt Q13233)"}, "MAK (human)": {"molecular_target": "MAK (human) (UniProt P20794)"}, "[4]": {"system": "EGFR (human), P00533 [L861Q]"}, "EGFR (human)": {"molecular_target": "EGFR (human) (UniProt P00533)"}, "CDK4 CCND3 (human)": {"molecular_target": "CDK4 CCND3 (human) (UniProt P11802+P30281)", "sequence (P11802 whole entry, looked up)": "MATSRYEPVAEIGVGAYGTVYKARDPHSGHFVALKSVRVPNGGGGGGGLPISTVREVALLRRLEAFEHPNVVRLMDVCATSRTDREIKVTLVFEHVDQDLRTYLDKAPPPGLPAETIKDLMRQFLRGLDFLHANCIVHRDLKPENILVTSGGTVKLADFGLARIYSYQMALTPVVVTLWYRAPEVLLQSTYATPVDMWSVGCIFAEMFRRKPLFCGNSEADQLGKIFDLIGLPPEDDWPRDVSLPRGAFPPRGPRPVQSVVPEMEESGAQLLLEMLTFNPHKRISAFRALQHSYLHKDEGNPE", "sequence (P30281 whole entry, looked up)": "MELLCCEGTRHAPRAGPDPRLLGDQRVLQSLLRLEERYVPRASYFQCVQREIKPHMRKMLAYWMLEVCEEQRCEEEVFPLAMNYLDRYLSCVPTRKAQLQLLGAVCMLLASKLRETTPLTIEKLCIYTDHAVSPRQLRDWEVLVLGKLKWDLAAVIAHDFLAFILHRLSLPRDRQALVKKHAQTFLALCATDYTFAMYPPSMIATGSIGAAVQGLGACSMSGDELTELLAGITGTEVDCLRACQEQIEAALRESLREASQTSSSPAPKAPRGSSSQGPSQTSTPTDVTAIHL"}, "TRPM6 (human)": {"molecular_target": "TRPM6 (human) (UniProt Q9BX84)"}, "[5]": {"system": "EGFR (human), P00533 [746-750 del]"}, "MAP3K15 (human)": {"molecular_target": "MAP3K15 (human) (UniProt Q6ZN16)"}, "SNRK (human)": {"molecular_target": "SNRK (human) (UniProt Q9NRH2)"}, "PIK3CA (human)": {"molecular_target": "PIK3CA (human) (UniProt P42336)"}, "CSNK1A1 (human)": {"molecular_target": "CSNK1A1 (human) (UniProt P48729)", "sequence (P48729 whole entry, looked up)": "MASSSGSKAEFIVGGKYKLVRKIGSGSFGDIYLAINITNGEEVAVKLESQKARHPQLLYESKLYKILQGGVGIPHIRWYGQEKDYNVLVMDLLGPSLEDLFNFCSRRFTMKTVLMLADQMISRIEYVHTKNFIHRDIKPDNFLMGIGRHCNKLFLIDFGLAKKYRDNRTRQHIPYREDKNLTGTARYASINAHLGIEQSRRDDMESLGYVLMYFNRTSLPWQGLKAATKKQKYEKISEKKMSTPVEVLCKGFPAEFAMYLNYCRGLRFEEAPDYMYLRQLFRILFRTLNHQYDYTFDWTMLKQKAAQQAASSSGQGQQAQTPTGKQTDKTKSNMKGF"}, "[6]": {"system": "EGFR (human), P00533 [G719S]"}, "DDR1 (human)": {"molecular_target": "DDR1 (human) (UniProt Q08345)", "sequence (Q08345 whole entry, looked up)": "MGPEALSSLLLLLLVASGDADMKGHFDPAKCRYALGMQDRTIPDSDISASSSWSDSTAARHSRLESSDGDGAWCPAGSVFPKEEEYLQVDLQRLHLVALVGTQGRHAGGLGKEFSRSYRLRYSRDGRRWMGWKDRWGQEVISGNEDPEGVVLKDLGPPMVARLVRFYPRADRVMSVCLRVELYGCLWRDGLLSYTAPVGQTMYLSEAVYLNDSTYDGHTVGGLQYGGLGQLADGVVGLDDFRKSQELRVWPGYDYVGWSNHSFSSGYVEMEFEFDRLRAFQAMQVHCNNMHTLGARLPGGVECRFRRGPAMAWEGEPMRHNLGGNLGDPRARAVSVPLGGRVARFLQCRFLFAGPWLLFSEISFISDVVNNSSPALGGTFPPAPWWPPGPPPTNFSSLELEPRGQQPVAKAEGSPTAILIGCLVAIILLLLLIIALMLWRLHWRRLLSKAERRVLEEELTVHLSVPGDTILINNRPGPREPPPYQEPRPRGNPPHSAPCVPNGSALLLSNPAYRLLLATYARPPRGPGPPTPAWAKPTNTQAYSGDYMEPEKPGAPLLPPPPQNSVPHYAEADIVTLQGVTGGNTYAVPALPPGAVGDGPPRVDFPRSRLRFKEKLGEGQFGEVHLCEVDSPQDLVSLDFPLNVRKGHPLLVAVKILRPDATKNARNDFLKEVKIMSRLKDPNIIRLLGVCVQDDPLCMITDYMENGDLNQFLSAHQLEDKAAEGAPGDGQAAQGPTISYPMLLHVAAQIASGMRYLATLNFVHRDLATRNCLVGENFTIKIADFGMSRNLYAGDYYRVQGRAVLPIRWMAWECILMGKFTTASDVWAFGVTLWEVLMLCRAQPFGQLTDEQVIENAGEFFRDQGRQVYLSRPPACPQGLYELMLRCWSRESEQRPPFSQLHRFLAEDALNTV"}, "MATK (human)": {"molecular_target": "MATK (human) (UniProt P42679)"}},
  "data": [
    {"compound": "C=CC(=O)Nc1cc(NC(=O)c2ccc(C)c(NC(=O)c3ccno3)c2)cc(C(F)(F)F)c1", "values": [
      {"measurement": "kinase still bound, per cent of control", "setting": "TBK1 (human)", "result": 100, "unit": "%"},
      {"measurement": "kinase still bound, per cent of control", "setting": "CDKL3 (human)", "result": 90, "unit": "%"},
      {"measurement": "kinase still bound, per cent of control", "setting": "[1]", "result": 77, "unit": "%"},
      {"measurement": "kinase still bound, per cent of control", "setting": "PKN3 (M.tuberculosis)", "result": 75, "unit": "%"},
      {"measurement": "kinase still bound, per cent of control", "setting": "[2]", "result": 79, "unit": "%"},
      {"measurement": "kinase still bound, per cent of control", "setting": "PIK3C2G (human)", "result": 100, "unit": "%"},
      {"measurement": "kinase still bound, per cent of control", "setting": "NEK11 (human)", "result": 100, "unit": "%"},
      {"measurement": "kinase still bound, per cent of control", "setting": "MAP3K6 (human)", "result": 83, "unit": "%"},
      {"measurement": "kinase still bound, per cent of control", "setting": "PIP4K2C (human)", "result": 90, "unit": "%"},
      {"measurement": "kinase still bound, per cent of control", "setting": "SIK3 (human)", "result": 82, "unit": "%"},
      {"measurement": "kinase still bound, per cent of control", "setting": "NEK4 (human)", "result": 84, "unit": "%"},
      {"measurement": "kinase still bound, per cent of control", "setting": "PIP5K1C (human)", "result": 100, "unit": "%"},
      {"measurement": "kinase still bound, per cent of control", "setting": "STK38 (human)", "result": 90, "unit": "%"},
      {"measurement": "kinase still bound, per cent of control", "setting": "CDK13 (human)", "result": 100, "unit": "%"},
      {"measurement": "kinase still bound, per cent of control", "setting": "OXSR1 (human)", "result": 100, "unit": "%"},
      {"measurement": "kinase still bound, per cent of control", "setting": "CRK2 (P.falciparum)", "result": 98, "unit": "%"},
      {"measurement": "kinase still bound, per cent of control", "setting": "DSTYK (human)", "result": 100, "unit": "%"},
      {"measurement": "kinase still bound, per cent of control", "setting": "MAP3K2 (human)", "result": 100, "unit": "%"},
      {"measurement": "kinase still bound, per cent of control", "setting": "PRPF4B (human)", "result": 100, "unit": "%"},
      {"measurement": "kinase still bound, per cent of control", "setting": "HIPK3 (human)", "result": 100, "unit": "%"},
      {"measurement": "kinase still bound, per cent of control", "setting": "MAP2K7 (human)", "result": 100, "unit": "%"},
      {"measurement": "kinase still bound, per cent of control", "setting": "GRK1 (human)", "result": 86, "unit": "%"},
      {"measurement": "kinase still bound, per cent of control", "setting": "DYRK2 (human)", "result": 78, "unit": "%"},
      {"measurement": "kinase still bound, per cent of control", "setting": "TIE1 (human)", "result": 100, "unit": "%"},
      {"measurement": "kinase still bound, per cent of control", "setting": "[3]", "result": 93, "unit": "%"},
      {"measurement": "kinase still bound, per cent of control", "setting": "GRK7 (human)", "result": 100, "unit": "%"},
      {"measurement": "kinase still bound, per cent of control", "setting": "MAP3K1 (human)", "result": 94, "unit": "%"},
      {"measurement": "kinase still bound, per cent of control", "setting": "MAK (human)", "result": 84, "unit": "%"},
      {"measurement": "kinase still bound, per cent of control", "setting": "[4]", "result": 100, "unit": "%"},
      {"measurement": "kinase still bound, per cent of control", "setting": "EGFR (human)", "result": 79, "unit": "%"},
      {"measurement": "kinase still bound, per cent of control", "setting": "CDK4 CCND3 (human)", "result": 95, "unit": "%"},
      {"measurement": "kinase still bound, per cent of control", "setting": "TRPM6 (human)", "result": 100, "unit": "%"},
      {"measurement": "kinase still bound, per cent of control", "setting": "[5]", "result": 81, "unit": "%"},
      {"measurement": "kinase still bound, per cent of control", "setting": "MAP3K15 (human)", "result": 77, "unit": "%"},
      {"measurement": "kinase still bound, per cent of control", "setting": "SNRK (human)", "result": 100, "unit": "%"},
      {"measurement": "kinase still bound, per cent of control", "setting": "PIK3CA (human)", "result": 76, "unit": "%"},
      {"measurement": "kinase still bound, per cent of control", "setting": "CSNK1A1 (human)", "result": 100, "unit": "%"},
      {"measurement": "kinase still bound, per cent of control", "setting": "[6]", "result": 100, "unit": "%"},
      {"measurement": "kinase still bound, per cent of control", "setting": "DDR1 (human)", "result": 0.1, "unit": "%"},
      {"measurement": "kinase still bound, per cent of control", "setting": "MATK (human)", "result": 100, "unit": "%"}
    ]}
  ]
}
